Assay results as given in article PMC8699473, “An Easily Expandable Multi-Drug LC-MS Assay for the Simultaneous Quantification of 57 Oral Antitumor Drugs in Human Plasma” (Cancers, 2021).

Test: Short-term stability in spiked pooled human plasma (bench-top, 4 °C, 56 °C)

SMILES | Short-time stability (1h, 56°C) Accuracy [%] (validation standard 2xLLOV) | Short-time stability (24h, 4°C, without daylight) Accuracy [%] (validation standard 2xLLOV) | Short-time stability (24h, RT, with daylight) Accuracy [%] (validation standard 2xLLOV) | Short-time stability (24h, RT, without daylight) Accuracy [%] (validation standard 2xLLOV) | Short-time stability (1h, 56°C) Accuracy [%] (validation standard LLOV) | Short-time stability (24h, 4°C, without daylight) Accuracy [%] (validation standard LLOV) | Short-time stability (24h, RT, with daylight) Accuracy [%] (validation standard LLOV) | Short-time stability (24h, RT, without daylight) Accuracy [%] (validation standard LLOV) | Short-time stability (1h, 56°C) Accuracy [%] (validation standard MOV) | Short-time stability (24h, 4°C, without daylight) Accuracy [%] (validation standard MOV) | Short-time stability (24h, RT, with daylight) Accuracy [%] (validation standard MOV) | Short-time stability (24h, RT, without daylight) Accuracy [%] (validation standard MOV) | Short-time stability (1h, 56°C) Accuracy [%] (validation standard ULOV) | Short-time stability (24h, 4°C, without daylight) Accuracy [%] (validation standard ULOV) | Short-time stability (24h, RT, with daylight) Accuracy [%] (validation standard ULOV) | Short-time stability (24h, RT, without daylight) Accuracy [%] (validation standard ULOV) | concentrations in short-term stability investigations (24 h, room temperature, with or without light)
CS(=O)(=O)CCNCc1ccc(-c2ccc3ncnc(Nc4ccc(OCc5cccc(F)c5)c(Cl)c4)c3c2)o1 [Lapatinib] | 19.2 | 96.4 | 46.9 | 53.0 | -24.8 | 92.5 | 5.2 | 14.4 | 46.1 | 97.9 | 93.5 | 109.4 | 42.5 | 94.3 | 100.7 | 112.4 | 
O=C(Nc1cnn2ccc(N3CCC[C@@H]3c3cc(F)ccc3F)nc12)N1CC[C@H](O)C1 [Larotrectinib] | 58.9 | 104.3 | 109.3 | 102.4 | 44.4 | 107.8 | 115.6 | 100.1 | 58.2 | 99.9 | 106.3 | 110.8 | 50.9 | 98.3 | 105.3 | 104.5 | 
Nc1cccc2c1CN(C1CCC(=O)NC1=O)C2=O (stereo not shown) [Lenalidomide] | 39.6 | 107.4 | 54.9 | 49.6 |  | 83.0 | 81.5 |  | 20.6 | 97.8 | 58.7 | 54.1 | 18.5 | 90.4 | 51.9 | 50.9 | 
COc1cc2nccc(Oc3ccc(NC(=O)NC4CC4)c(Cl)c3)c2cc1C(N)=O [Lenvatinib] | 56.5 | 103.4 | 96.8 | 94.6 | 62.9 | 114.0 | 106.4 | 110.0 | 46.6 | 95.9 | 93.9 | 94.3 | 40.6 | 100.4 | 102.7 | 97.9 | 
CO[C@@H]1[C@H](N(C)C(=O)c2ccccc2)C[C@H]2O[C@]1(C)n1c3ccccc3c3c4c(c5c6ccccc6n2c5c31)C(=O)NC4 [Midostaurin] | 45.3 | 93.5 | 91.7 | 88.1 | 39.0 | 90.3 | 89.5 | 85.7 | 41.7 | 103.7 | 88.3 | 91.0 | 37.7 | 98.8 | 89.5 | 88.4 | 
CCOc1cc2ncc(C#N)c(Nc3ccc(OCc4ccccn4)c(Cl)c3)c2cc1NC(=O)/C=C/CN(C)C [Neratinib] | -7.9 | 79.9 | 23.2 | 25.4 | -88.6 | 65.9 | -37.5 | -39.1 | 26.0 | 89.7 | 37.9 | 39.2 | 21.9 | 81.3 | 28.5 | 31.5 | 
COC(=O)c1ccc2c(c1)NC(=O)/C2=C(\Nc1ccc(N(C)C(=O)CN2CCN(C)CC2)cc1)c1ccccc1 [Nintedanib] | 48.8 | 103.5 | 102.5 | 105.4 | 56.0 | 96.7 | 99.4 | 96.1 | 51.2 | 100.1 | 104.3 | 103.0 | 43.9 | 88.8 | 105.8 | 102.1 | 
C=CC(=O)Nc1cc(Nc2nccc(-c3cn(C)c4ccccc34)n2)c(OC)cc1N(C)CCN(C)C [Osimertinib] | 29.9 | 95.8 | 61.4 | 61.7 | 28.7 | 85.8 | 62.0 | 60.5 | 30.1 | 96.3 | 75.7 | 72.0 | 26.0 | 86.7 | 67.4 | 63.9 | 60.5–75.7%
Cc1ccc(Nc2nccc(N(C)c3ccc4c(C)n(C)nc4c3)n2)cc1S(N)(=O)=O [Pazopanib] |  | 101.2 | 103.3 | 104.3 |  | 104.1 | 100.2 | 105.8 |  | 97.8 | 99.1 | 101.2 |  | 97.1 | 102.6 | 99.1 | 
Cc1ccc(C(=O)Nc2ccc(CN3CCN(C)CC3)c(C(F)(F)F)c2)cc1C#Cc1cnc2cccnn12 [Ponatinib] | 48.3 | 96.6 | 98.7 | 98.1 |  |  |  |  | 50.8 | 100.1 | 99.8 | 102.6 | 43.1 | 93.3 | 97.8 | 98.9 | 
CNC(=O)c1cc(Oc2ccc(NC(=O)Nc3ccc(Cl)c(C(F)(F)F)c3)c(F)c2)ccn1 [Regorafenib] | 41.3 | 95.0 | 89.4 | 83.8 | 32.3 | 83.3 | 88.6 | 80.3 | 39.7 | 104.6 | 90.2 | 90.8 | 35.4 | 101.4 | 89.0 | 87.8 | 
CN(C)C(=O)c1cc2cnc(Nc3ccc(N4CCNCC4)cn3)nc2n1C1CCCC1 [Ribociclib] | 49.7 | 98.0 | 94.2 | 92.7 | 30.6 | 87.3 | 79.3 | 81.3 | 50.5 | 98.8 | 95.0 | 93.5 | 41.5 | 84.9 | 84.8 | 83.3 | 
CNCc1ccc(-c2[nH]c3cc(F)cc4c3c2CCNC4=O)cc1 [Rucaparib] | 56.7 | 94.0 | 94.3 | 95.8 | 60.9 | 106.8 | 100.0 | 99.7 | 52.2 | 102.0 | 100.5 | 102.1 | 46.1 | 96.9 | 98.9 | 99.1 | 
